The values below are quoted from earlier work in patent publication EP4537663A1, “INCLUSION COMPLEX COMPRISING TRYPTOPHAN AND ARGININE; FERTILISING, BIOSTIMULANT AND ANTIMICROBIAL COMPOSITION COMPRISING SAME; PRODUCTION METHOD THEREOF; AND USE THEREOF” (Universidad de Valladolid, priority 2022, dated 2023).

≈ marks a conversion by molar mass, not a printed value.

The conditions of this data set: at 25°C.

On to `N[C@@H](Cc1c[nH]c2ccccc12)C(=O)O` [tryptophan], for which the solubility in water was ~11.4 mg/mL (≈ 55.8 mM).
